Structures can show the parent of a compound that is named as a salt.
Columns and labels:
[1] = system: spontaneously hypertensive rats of the Okamoto strain; test: Reduction of mean arterial blood pressure in spontaneously hypertensive rats; assay type: in vivo, rat; settings: second identical dose at 24 h, measured at 28 h, male SHR, average MABP 160±1.5 mm of mercury
Method: These compounds were tested for hypotensive activity by the method of P. S. Chan and D. W. Poorvin, Clinical and Experimental Hypertension, 1 (6), 817-830 (1979). Male, 16 week old, spontaneously hypertensive rats of the Okamoto strain having an average mean arterial blood pressure of 160±1.5 mm of mercury are used in the test. One to three rats are used per test compound. The test compound is suspended in 2% pre-boiled starch at a concentration of 50 mg/ml, and a rat is dosed by gavage at a dose of 100 mg/kg of body weight or less, with 0.9% sodium chloride loading at a dose of 25 ml/kg of body weight. A second identical dose of the test compound, without sodium chloride loading, is given 24 hours later. At 28 hours after the initial dose the mean arterial blood pressure is measured by the method of Chan and Poorvin vide supra. The procedure is repeated in a second and third rat when necessary.

[2] = target: T1, [^3 H]-imipramine receptor (human platelet membranes) (Homo sapiens, UniProt P31645); test: Inhibition of [^3 H]-imipramine binding to human platelet membranes; settings: 10 μm test compound, 90 minutes at 0° C., duplicate, more than 50% considered active; for inhibition at 10 µM: 1.5 h
T1 construct: Platelet membranes were obtained using the procedure described by Wennogle, L. P., et al; tissue New York Blood Center; host or cells: human platelets (washed, sonicated membranes)
T1 sequence (P31645 whole entry): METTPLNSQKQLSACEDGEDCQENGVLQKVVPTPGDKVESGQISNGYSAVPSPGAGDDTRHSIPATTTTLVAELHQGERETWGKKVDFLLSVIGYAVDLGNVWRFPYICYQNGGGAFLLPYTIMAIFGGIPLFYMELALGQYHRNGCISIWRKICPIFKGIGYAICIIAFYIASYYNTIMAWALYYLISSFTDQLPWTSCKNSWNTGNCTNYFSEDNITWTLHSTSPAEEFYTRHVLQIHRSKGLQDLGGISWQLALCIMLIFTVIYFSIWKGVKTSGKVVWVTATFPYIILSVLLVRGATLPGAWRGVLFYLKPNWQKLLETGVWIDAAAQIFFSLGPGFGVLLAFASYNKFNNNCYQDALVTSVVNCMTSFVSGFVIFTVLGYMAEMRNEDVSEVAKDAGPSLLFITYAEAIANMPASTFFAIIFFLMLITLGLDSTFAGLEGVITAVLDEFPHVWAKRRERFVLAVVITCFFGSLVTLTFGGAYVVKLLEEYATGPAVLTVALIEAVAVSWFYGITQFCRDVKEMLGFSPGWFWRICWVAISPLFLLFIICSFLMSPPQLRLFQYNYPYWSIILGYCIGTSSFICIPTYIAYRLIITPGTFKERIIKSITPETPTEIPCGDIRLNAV
Method: The activity of the compounds of this invention as antidepressant agents was verified in the following test which measures the ability of a test compound to inhibit [^3 H]-imipramine binding to human platelet membranes.
Platelet membranes were obtained using the procedure described by Wennogle, L. P., et al., Pharmac. Biochem Behav., 15, 975 (1981). Fresh human platelet concentrates(less than 48 hours old) were obtained from the New York Blood Center. These concentrates were prepared in a citrate-dextrose anticoagulant using standard techniques. Platelets were washed twice by centrifugation (2500 x G, 10 minutes) in 50 volumes of an antiprotease buffer containing 0.005M potassium chloride, 0.12M sodium chloride, 0.05M Tris pH 7.5, 0.025 Units/ml aprotinin, 0.5 μg/m pepstatin, […] bacitracin, 3 mM ethylenediaminetetraacetic acid and 1.0 mM ethylene glycol-bis(β-aminoethyl ether)-N,N'-tetraacetic acid. […] All procedures were conducted at 0° C. using plastic laboratory ware throughout the platelet membrane preparation. Platelets were resuspended in 20 volumes of buffer and sonicated 3 times using 10 second bursts of a Branson sonifier (cell disrupter 350) at setting 6 (standard 3/4 inch horn), keeping the sample on ice throughout the procedure. Platelet membranes were then washed twice at 18,000 x G for 20 minutes with 50 volumes of the antiprotease buffer and resuspended to 3.0 mg protein/ml using the Bradford protein analysis with bovine gamma globulin as standard. Membranes were used immediately or stored frozen in liquid nitrogen.
The displacement of [^3 H]-imipramine binding to human platelet membranes was performed essentially as described by Paul, S. M., et al , Life Sci., 26, 953 (1980) with the following modifications. Membranes (0.3 mg protein) were suspended in antiprotease buffer with both […] [^3 H]-imipramine (New England Nuclear) and displacing drug or buffer in a total volume of 250 μl in glass test tubes. Samples were incubated for 90 minutes at 0° C., then diluted to 5 ml in […] sodium chloride, 0.005M potassium chloride, 0.05 Tris pH 7.5 (wash buffer) and immediately filtered through GF/B Whatman Filters and washed twice with 5 ml of wash buffer. Filters were counted in a liquid scintillation counter after addition of Beckman Hp Scintillant.
Non-specific binding of [^3 H]-imipramine was defined as that fraction (generally 35%) of radioactivity that was not displaced by 10 μm desmethylimipramine. Specific binding was determined by subtraction of this non-specific level from values for total [^3 H]-imipramine binding which were measured by incubating [^3 H]-imipramine in the absence of displacing drug. Compounds were tested in duplicate test tubes at a concentration of 10 μm. Compounds which inhibited binding by more than 50% were considered to be active.

| Structure (SMILES) | MABP/mm Hg (mean arterial blood pressure) ([1]; 100 mg/kg by gavage) [mm Hg] | inhibition at 10 µM [2] [%] | other results |
| --- | --- | --- | --- |
| N#Cc1ncn2c1N(C(=O)CCN1CCN(c3ccccc3)CC1)CC=C2c1cccc(C(F)(F)F)c1 [Example 17, 1,2-Dihydro-1-[1-oxo-3-(4-phenyl-1-piperazinyl]propyl]-4-[3-(trifluoromethyl)phenyl]imidazo[1,5-a]pyrimidine-8-carbonitrile] | 115 | – | – |
| N#Cc1ncn2c1N(C(=O)CCN1CCN(Cc3ccc(Cl)cc3)CC1)CC=C2c1cccc(C(F)(F)F)c1 [Example 20, 1-[3-[4-[(4-Chlorophenyl)methyl]-1-piperazinyl]-1-oxopropyl]-1,2-dihydro-4-[3-(trifluoromethyl)phenyl]imidazo[1,5-a]pyrimidine-8-carbonitrile] | 128 | 75 | – |
| N#Cc1ncn2c1N(C(=O)CCN1CCN(Cc3c(Cl)cccc3Cl)CC1)CC=C2c1cccc(C(F)(F)F)c1 [Example 23, 1-[4-[4-[(2,6-Dichlorophenyl)methyl]-1-piperazinyl]-1-oxopropyl]-1,2-dihydro-4-[3-(trifluoromethyl)phenyl]imidazo[1,5-a]pyrimidine-8-carbonitrile] | – | 98 | – |
| N#Cc1ncn2c1N(C(=O)CCN1CCN(CCCOc3ccccc3)CC1)CC=C2c1cccc(C(F)(F)F)c1 [Example 21, 1,2-Dihydro-1-[1-oxo-3-[4-(3-phenoxypropyl)-1-piperazinyl]propyl]-4-[3-(trifluoromethyl)phenyl]imidazo[1,5-a]pyrimidine-8-carbonitrile] | – | 66 | – |
| COc1cccc(CN2CCN(CC(=O)N3CC=C(c4cccc(C(F)(F)F)c4)n4cnc(C#N)c43)CC2)c1 [Example 5, 1,2-Dihydro-1-[[4-[(3-methoxyphenyl)methyl]-1-piperazinyl]acetyl]-4-[3-(trifluoromethyl)phenyl]imidazo[1,5-a]pyrimidine-8-carbonitrile] | – | – | % Inhibition of [^3 H]-imipramine binding [2]: 81% |
| N#Cc1ncn2c1N(C(=O)CN1CCN(Cc3ccc(Cl)cc3)CC1)CC=C2c1cccc(C(F)(F)F)c1 [Example 11, 1-[[4-[(4-Chlorophenyl)methyl]-1-piperazinyl]acetyl]-1,2-dihydro-4-[3-(trifluoromethyl)phenyl]imidazo[1,5-a]pyrimidine-8-carbonitrile] | – | 93 | – |
| N#Cc1ncn2c1N(C(=O)CN1CCN(C(c3ccccc3)c3ccc(Cl)cc3)CC1)CC=C2c1cccc(C(F)(F)F)c1 (stereo not shown) [Example 10, 1-[[4-[(4-Chlorophenyl)phenylmethyl]-1-piperazinyl]acetyl]-1,2-dihydro-4-[3-(trifluoromethyl)phenyl]imidazo[1,5-a]pyrimidine-8-carbonitrile] | 137 | – | – |
| N#Cc1ncn2c1N(C(=O)CCN1CCN(c3ccc(F)cc3)CC1)CC=C2c1cccc(C(F)(F)F)c1 [Example 16, 1-[3-[4-(4-Fluorophenyl)-1-piperazinyl]-1-oxopropyl]-1,2-dihydro-4-[3-(trifluoromethyl)phenyl]imidazo[1,5-a]pyrimidine-8-carbonitrile] | 110 | 78 | – |
| N#Cc1ncn2c1N(C(=O)CN1CCN(CCCOc3ccccc3)CC1)CC=C2c1cccc(C(F)(F)F)c1 [Example 9, 1,2-Dihydro-1-[[4-(3-phenoxypropyl)-1-piperazinyl]acetyl]-4-[3-(trifluoromethyl)phenyl]imidazo[1,5-a]pyrimidine-8-carbonitrile] | 130 | 50 | – |
| N#Cc1ncn2c1N(C(=O)CN1CCN(c3ccc(Cl)cc3)CC1)CC=C2c1cccc(C(F)(F)F)c1 [Example 13, 1-[[4-(4-Chlorophenyl)-1-piperazinyl]acetyl]-1,2-dihydro-4-[3-(trifluoromethyl)phenyl]imidazo[1,5-a]pyrimidine-8-carbonitrile] | 137 | – | – |
| N#Cc1ncn2c1N(C(=O)CCN1CCN(c3ccc(Cl)cc3)CC1)CC=C2c1cccc(C(F)(F)F)c1 [Example 18, 1-[3-[4-(4-Chlorophenyl)-1-piperazinyl]-1-oxopropyl]-1,2-dihydro-4-[3-(trifluoromethyl)phenyl]imidazo[1,5-a]pyrimidine-8-carbonitrile] | 118 | 53 | – |
| N#Cc1ncn2c1N(C(=O)CN1CCC(c3ccccc3)CC1)CC=C2c1cccc(C(F)(F)F)c1 [Example 25, 1,2-Dihydro-1-[(4-phenyl-1-piperidinyl)acetyl]-4-[3-(trifluoromethyl)phenyl]imidazo[1,5-a]pyrimidine-8-carbonitrile] | 137 | – | – |
| N#Cc1ncn2c1N(C(=O)CCN1CCN(Cc3ccccc3)CC1)CC=C2c1cccc(C(F)(F)F)c1 [Example 22, 1,2-Dihydro-1-[1-oxo-3-[(4-phenylmethyl)-1-piperazinyl]propyl]-4-[3-(trifluoromethyl)phenyl]imidazo[1,5-a]pyrimidine-8-carbonitrile] | – | 61 | – |
| C#CCN1CCN(CC(=O)N2CC=C(c3cccc(C(F)(F)F)c3)n3cnc(C#N)c32)CC1.Cl.Cl [Example 14, 1,2-Dihydro-1-[[4-(2-propynyl)-1-piperazinyl]acetyl]-4-[3-(trifluoromethyl)phenyl]imidazo[1,5-a]pyrimidine-8-carbonitrile, dihydrochloride] | 129 | – | – |
| CCOC(=O)N1CCN(CCC(=O)N2CC=C(c3cccc(C(F)(F)F)c3)n3cnc(C#N)c32)CC1.Cl [Example 19, 4-[3-[8-Cyano-4-[3-(trifluoromethyl)phenyl]imidazo[1,5-a]pyrimidine-1(2H)-yl]-3-oxopropyl]-1-piperazinecarboxylic acid, ethyl ester monohydrochloride] | 134 | – | – |
| COc1cccc(CN2CCN(CC(=O)N3CC=C(c4cccc(C(F)(F)F)c4)n4cnc(C#N)c43)CC2)c1 [Example 6, 1,2-Dihydro-1-[[4-[(3-methoxyphenyl)methyl]-1-piperazinyl]acetyl]-4-[3-trifluoromethyl)phenyl]imidazo[1,5-a]pyrimidine-8-carbonitrile, dihydrochloride] | – | 75 | – |
| CC(C)N1CCN(CCC(=O)N2CC=C(c3cccc(C(F)(F)F)c3)n3cnc(C#N)c32)CC1 [Example 24, 1,2-Dihydro-1-[3-[4-(1-methylethyl)-1-piperazinyl]-1-oxopropyl]-4-[3-(trifluoromethyl)phenyl]imidazo[1,5-a]pyrimidine-8-carbonitrile] | – | – | MABP/mm Hg (mean arterial blood pressure) ([1]; 50 mg/kg by gavage): 133 mm Hg |
| COc1ccc(Cl)cc1NCC(=O)N1CC=C(c2cccc(C(F)(F)F)c2)n2cnc(C#N)c21 [1-[[(5-Chloro-2-methoxyphenyl)amino]acetyl]-1,2-dihydro-4-[3-(trifluoromethyl)phenyl]imidazo[1,5-a]pyrimidine-8-carbonitrile] | 135 | – | – |
